Source: patent publication US20110071072A1, “Antifungal Bone Cements” (Georgetown University, A Congressionally Chartered …, priority 2009, published 2011)
Numbered stars: 1 amine (or outer) side, 2 acyl side, 3 side chain; on linkers, the order of the positions; unused ones are H or OH. Bridge positions count the residues as written; N and C are the ends. Square brackets hold non-standard residues; d marks the D form. Peptide text beside a SMILES is read from it. * marks the point of attachment. hTyr(3S-OH,4S-OH,3'-OSO3H) = N[C@H](C(=O)O)[C@H](O)[C@@H](O)c1ccc(O)c(OS(=O)(=O)O)c1; Orn(4R-OH,5R-OH) = O=C([C@H](C[C@@H](O)[C@@H](O)N[*:3])N[*:1])[*:2]; Pro(3S-OH,4S-Me) = C[C@H]1CN[C@H](C(=O)O)[C@H]1O; X1 = CCCCCOc1ccc(-c2cc(-c3ccc(C(=O)*)cc3)no2)cc1; Gln(3R-OH) = NC(=O)C[C@@H](O)[C@H](N)C(=O)O; Hyp = O=C(O)[C@@H]1C[C@@H](O)CN1

Legend:
C. albicans [1] = test: Growth inhibition by PM-cement or hydroxyapatite (HA) infiltrated with micafungin or anidulafungin (FIG. 2); assay type: cell-based, Candida albicans
Protocol: FIG. 2 is a graph showing comparisons of micafungin (MIC) and anidulafungin (ANA) infiltrated in hydrozyapatite (HA) or polymethylmethacrylate (PM)-cement and their inhibitory activity against C. albicans.
Both PM-cement and hydroxyapatite (HA) infiltrated with either micafungin or anidulafungin were evaluated. […] The results again indicated the superiority of micafungin (especially the longevity or diffusion of the drug) regardless of whether the drug was infiltrated in HA or PM cement.

C. albicans [2] = test: Agar diffusion: zone of growth inhibition around PM-cement discs impregnated with antifungal; assay type: cell-based; details: for duration of activity / inhibitory activity compared with voriconazole: PM cement discs; for duration of activity: days of incubation; for inhibitory activity compared with voriconazole: in words; for time up to which anti-candida activity was detected: cement discs, post-incubation
Protocol: The echinocandin antifungal micafungin or the triazole voriconazole were mixed with polymethylmethacrylate and a bone cement was formed using the mixture. C. albicans was grown overnight in T-soy broth, washed in buffer, then 1000 C. albicans yeast cells were added to the agar surface of a medium containing RPMI, MOPS, and 2% glucose, which was prepared by adding the latter to autoclaved agar after the agar had cooled for 15 min. Cement discs containing micafungin (100 mg) or voriconazole (400 mg) were prepared as described below. Each cement-antifungal disc was placed on the agar culture medium containing the organism.
The antifungal-cement mix (Smartset HV®, bone cement, DePuy (Warsaw, Ind.)) was prepared as follows under sterile conditions: the polymethylmethacrylate (PM) cement powder (part 1) was first mixed thoroughly with each drug and, then 18.88 g of bone cement liquid (part 2) was added to the mixture. Discs of cement-drug were prepared quickly before the cement hardened. Each cement disc (14 mm) was then placed in the center of inoculated agar cultures in 60 mm petri dishes. The plates were then incubated at 30° C. and zones of inhibition were measured every 24 hrs until activity was not observed (usually 6 days). The same discs were removed daily and placed on fresh agar medium that was inoculated similarly.
At 24 hrs, cement discs containing the antifungal micafungin were about 2.5-fold greater in activity that voriconazole. Further, the activity of micafungin was still detected at 120 hrs post-incubation, while no activity was detected after 24 hrs with voriconazole. Data were plotted as mm growth inhibition versus days of incubation (Table 1). The plates were digitally photographed using image processing software.

CCCCCOc1ccc(-c2cc(-c3ccc(C(=O)N[C@H]4C[C@@H](O)[C@@H](O)NC(=O)[C@@H]5[C@@H](O)[C@@H](C)CN5C(=O)[C@H]([C@H](O)CC(N)=O)NC(=O)[C@H]([C@H](O)[C@@H](O)c5ccc(O)c(OS(=O)(=O)O)c5)NC(=O)[C@@H]5C[C@@H](O)CN5C(=O)[C@H]([C@@H](C)O)NC4=O)cc3)no2)cc1 [micafungin] (X1-[Orn(4R-OH,5R-OH)]T[Hyp][hTyr(3S-OH,4S-OH,3'-OSO3H)][Gln(3R-OH)][Pro(3S-OH,4S-Me)]; lactam 1-C)
in vitro anti-Candida albicans activity, comparison (C. albicans [1]; HA or PM cement, in words): significantly greater than that of voriconazole and anidulafungin | persistence of activity (C. albicans [1]; drug infiltrated in HA or PM cement): 6 to 7 days | duration of activity (C. albicans [2]): ≥ 6 days | inhibitory activity compared with voriconazole (C. albicans [2]): much greater | inhibitory activity compared with voriconazole (C. albicans [2]; listed as Micafungin): superior and longer lasting | activity of cement discs relative to voriconazole discs (C. albicans [2]; at 24 hrs, micafungin 100 mg vs voriconazole 400 mg discs): about 2.5 fold | time up to which anti-candida activity was detected (C. albicans [2]): ≥ 120 h

C[C@@H](c1ncncc1F)[C@](O)(Cn1cncn1)c1ccc(F)cc1F [voriconazole]
duration of activity (C. albicans [2]): 1 days | duration of activity (C. albicans [2]; listed as voriconzole): ≤ 1 days | time up to which anti-candida activity was detected (C. albicans [2]): ≤ 24 h
